Data as given in publication PMC7081907, “Discovery and Selection of Hepatitis B Virus-Derived T Cell Epitopes for Global Immunotherapy Based on Viral Indispensability, Conservation, and HLA-Binding Strength” (Journal of Virology, 2020).
Marks after values point to notes of the source that are not given here.

Tests used:
HBV-specific T cells = conditions: cumulative over papers, responder = positive multimer staining and/or IFN-γ ELISPOT, ref Hepitopes database [24], [49], cited from earlier work; for % responders (no. of responders/total no. of subjects tested), Acute: patients with acute/resolved HBV infection, asterisk = significantly more prevalent than in other groups; for % responders (no. of responders/total no. of subjects tested), HCC: HBV-positive HCC patients; for % responders (no. of responders/total no. of subjects tested), Chronic: chronic HBV patients;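 on all read-outs here: responder rates refer to previously reported epitopes of HBx or polymerase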
HLA-B*08:01 = HLA-B*08:01 (Homo sapiens, UniProt P01889, A93T/A95T/D138N/E176V/E187T/K202T/Q94N/R180D/S35A/V36M/Y33D/Y91F); assay: UV-based in vitro HLA binding assay (peptide exchange + HLA-I ELISA), HLA-B*08:01; conditions: conditional pHLA 0.53 μM, peptide 50 μM, 30 min 366-nm UV, absorbance 414 nm normalized to high-affinity positive control (100%), two exchanges, each in duplicate
From the text: Nonbound material was removed by washing. […] Every peptide was independently exchanged twice.

[1] = system: PBMCs from blood donors who had previously resolved an HBV infection; assay: Immunogenicity: IFN-γ ELISA on peptide-expanded PBMCs of HBV resolvers; format: cell-based, human; conditions: for IFN-γ production in response to peptide, in words: expanded PBMCs from 9 HBV resolvers, HLA-matched, single-peptide restimulation 48 h, 10 μg/ml, DMSO-subtracted; for number of responsive donors as a fraction of the total number of subjects tested: PBMCs expanded 14 days, restimulated 48 h, 10 μg/ml/peptide, response = mean OD ≥ mean + 2 SD of DMSO
Description: Finally, the immunogenicity of all HBx- and Pol-derived binders was assessed to determine which binders would be most interesting for the development of an antigen-based HBV-targeting immunotherapy.
Briefly, PBMCs were isolated by Ficoll (GE Healthcare) density centrifugation from buffy coats of 9 donors who had previously resolved HBV infection. Buffy coats were provided by the local blood bank with corresponding 2-digit HLA types. Four-digit HLA typing was performed for 7 out of 9 donors using the global screening array (GSA) (Illumina through the Human Genomics Facility, Erasmus MC Rotterdam) (Table 3). All donors gave written informed consent. PBMCs were cultured in Iscove’s modified Dulbecco’s medium (IMDM) (Lonza) containing 2% human serum (Sanquin) and 50 IU/ml human interleukin-2 (hIL-2) (Miltenyi) in the presence of peptide pools of a maximum of 5 peptides of interest based on HLA matching at 10 μg/ml/peptide. After 14 days, 200,000 cells were restimulated with the peptides of interest for 48 h at 37°C with 10 μg/ml/peptide in triplicate. Supernatants from restimulations were subsequently used in a human IFN-γ (hIFN-γ) ELISA (BioLegend) according to the manufacturer’s instructions. Plates were read at a 450-nm wavelength using an Infinite 200Pro ELISA reader. hIFN-γ levels were calculated from background-subtracted optical density (OD) values (means from triplicates) using a supernatant derived from a previously successful restimulation with c18-27 that was quantified in a separate ELISA using the hIFN-γ standard provided by the manufacturer. HLA binders with a mean OD value of at least the mean plus 2 times the standard deviation (SD) of the dimethyl sulfoxide (DMSO) control were quantified.

HLA-A*24:02 = HLA-A*24:02 (Homo sapiens, UniProt P04439, D101N/D140Y/D185E/E176V/E190D/F33S/G103R/G107R/I119L/I121M/I306V/K335N/L105A/L180Q/L300P/N151K/N90K/Q86E/Q94H/R106L/R138H/R89G/T104I/T345S/V100E/W191G/Y123F); assay: UV-based in vitro HLA binding assay (peptide exchange + HLA-I ELISA), HLA-A*24:02; conditions: conditional pHLA 0.53 μM, peptide 50 μM, 30 min 366-nm UV, absorbance 414 nm normalized to high-affinity positive control (100%), two exchanges, each in duplicate
Description: (§1) Next, the HLA-binding capacity of selected peptides was tested in a UV-based in vitro binding assay. […] HLA-A*11:01 and HLA-A*03:01 were both tested as members of the HLA-A*03 supertype since many HBV-infected patients are Asian and HLA-A*11:01 is more prevalent in this population than the supertype representative HLA-A*03:01, which is more prevalent in Caucasians ([72]). We identified 13 binders for HBx and 33 for Pol across HLA supertypes, including novel binders that have been described previously in the context of another HLA type (Fig. 5A to G, dotted underlining, and Fig. 5H). […] In contrast, binding of infrequently reported epitopes (Fig. 5, solid underlining) could not always be verified.
(§2) Synthetic peptides (Peptide 2.0 Inc.) of selected potential HLA binders were used in an in vitro binding assay as described previously ([96]). […] Subsequently, the peptide exchange efficiency was analyzed using an HLA-I enzyme-linked immunosorbent assay (ELISA), which detects beta-2-microglobulin of peptide-stabilized HLA-I complexes in an exchange reaction mixture. […] The reaction was stopped after 8 min (incubation at room temperature) by the addition of a 2% (wt/vol) oxalic acid dihydrate stop solution (Sanquin Reagents BV) and read in a Thermo Electron Multiskan Ascent ELISA reader at 414 nm. […] Every exchange mixture was measured in duplicate by the HLA-I ELISA. […]

cytotoxic T cells = conditions: HLA-A*24:02 peptide, ref Yamamiya et al. [89]; cited from earlier work
From the text: We identified a few novel epitopes for which the sequence overlaps that of an epitope that has previously been described for the HLA type tested. […] It would now be interesting to investigate how responses to these epitope variants relate in CHB patients, especially since p755-764 has been the only HBV-derived epitope described for supertype HLA-A*24 until very recently. For HLA-A*24:02, we studied the binding cap ...

HLA-B*07:02 = HLA-B*07:02 (Homo sapiens, UniProt P01889); assay: UV-based in vitro HLA binding assay (peptide exchange + HLA-I ELISA), HLA-B*07:02; conditions: conditional pHLA 0.53 μM, peptide 50 μM, 30 min 366-nm UV, absorbance 414 nm normalized to high-affinity positive control (100%), two exchanges, each in duplicate
Description: as §1, §2

| Sequence | % responders (no. of responders/total no. of subjects tested), Acute (HBV-specific T cells) | % responders (no. of responders/total no. of subjects tested), HCC (HBV-specific T cells) | % responders (no. of responders/total no. of subjects tested), Chronic (HBV-specific T cells) | also measured |
| --- | --- | --- | --- | --- |
| SAICSVVRR | 9 (2/22) % |  |  |  |
| KVGNFTGLY [p55-63] | 9 (2/22) % |  |  |  |
| GLSRYVARL [p453-461] | 50 (39/78)* % | 0 (0/10) % | 6 (5/87) % |  |
| HTLWKAGILYK [p149-159] | 5 (1/22) % |  |  |  |
| QAFTFSPTYK [p665-674] | 14 (3/21) % |  |  |  |
| YPALMPLYA [p651-659] | 0 (0/12) % |  |  |  |
| QLDPARDVL | 25 (1/4) % | 0 (0/10) % | 0 (0/20) % |  |
| FLLSLGIHL [p573-581] | 59 (50/85)* % | 0 (0/10) % | 13 (9/70) % |  |
| YLHTLWKAGI [p147-156] |  | 0 (0/10) % |  |  |
| TLWKAGILYK [p150-159] | 18 (5/28) % |  |  |  |
| NLSWLSLDV [p422-430] |  | 0 (0/10) % |  |  |
| LVVDFSQFSR [p388-397] | 5 (1/22) % |  |  |  |
| VLGGCRHKL [x133-141] |  | 0 (0/10) % | 0 (0/20) % |  |
| KYTSFPWLL [p756-764] | 93 (13/14)* % |  | 48 (10/21) % |  |
| VLHKRTLGL [x92-100] |  | 19 (3/16) % | 0 (0/20) % | HLA binding class (binder/nonbinder), HLA-B*08:01 (HLA-B*08:01): binder (binders (>25% of the positive control)) |
| RKYTSFPWLL [p755-764] |  |  |  | IFN-γ production in response to peptide, in words [1]: superior IFN-γ production compared to the known epitope p756-764 in both donors tested |
| ASFCGSPYSW [p166-175] |  |  |  | HLA binding class (binder/nonbinder), HLA-A*24:02 (HLA-A*24:02): binder (binders (>25% of the positive control)) |
| ALMPLYACI [p653-661] | 20 (4/20) % | 0 (0/10) % | 0 (0/9) % |  |
| YMDDVVLGA [p549-557] | 15 (2/13) % | 0 (0/10) % | 0 (0/21) % | IFN-γ production in response to peptide, in words [1]: IFN-γ production was detected |
| SLYADSPSV [p814-822] | 25 (11/44)* % |  | 0 (0/22) % |  |
| KLVCSPAPC |  | 50 (3/6) % |  |  |
| GYPALMPLY [p650-658] |  |  |  | responding HBV resolvers (cytotoxic T cells): none of the 3; number of responsive donors as a fraction of the total number of subjects tested ([1]; HLA-A*24:02 donors): 1 of the 2 |
| HPAAMPHLL [p440-448] | 0 (0/12) % |  |  |  |
| TPARVTGGVF [p365-374] | 17 (2/12) % |  |  | number of responsive donors as a fraction of the total number of subjects tested ([1]; HLA-B*07:02 donors): 4/4; HLA binding class (binder/nonbinder), HLA-B*07:02 (HLA-B*07:02): binder (binders (>25% of the positive control)) |
| HLSLRGLPV [x52-60] |  | 19 (3/16) % | 0 (0/20) % | HLA binding class (binder/nonbinder), HLA-B*08:01 (HLA-B*08:01): binder (binders (>25% of the positive control)) |
| NVSIPWTHK [p47-55] | 5 (1/21) % |  |  |  |
| ILRGTSFVYV | 43 (3/7) % |  | 0 (0/9) % |  |
| CLFKDWEEL |  | 50 (3/6) % |  |  |
